Drawing on PubChem BioAssay AID248 (DTP/NCI, 2004), this text covers T/C for twelve molecules.

For this experiment, the system named is L1210 leukemia ip in BDF1 mice, survival T/C. As to the kind of experiment: NCI In Vivo Anticancer Drug Screen. Data for tumor model L1210 Leukemia (intraperitoneal) in B6D2F1 (BDF1) mice. The settings on record: endpoint: mean survival time, higher = longer survival. Put shortly: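 Transplanted-tumor mice were given test agent; controls received vehicle only. Survival readings from the two groups were divided (treated over control).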

[1] abbreviates: dose: 100.0 mg/kg/injection, schedule: Q01DX001 (ip), vehicle: Klucel (hydroxypropylcellulose) (HPC).
[2] abbreviates: dose: 200.0 mg/kg/injection, schedule: Q01DX001 (ip), vehicle: Klucel (hydroxypropylcellulose) (HPC).
The mark [3] stands for this setting: dose: 100.0 mg/kg/injection, schedule: Q01DX009 (ip), vehicle: saline with Tween-80.
Setting [4] is: dose: 200.0 mg/kg/injection, schedule: Q01DX009 (ip), vehicle: saline with Tween-80.
Where [5] appears, read: dose: 400.0 mg/kg/injection, schedule: Q01DX009 (ip), vehicle: saline with Tween-80.

“And” between values parts separate entries of the source, which are not always exact repeats. Identical values can stand only once. Toxic doses and inconclusive results are not listed.

For `O=C1NC(=O)C2C3C=CC(C3)C12` (stereo not given), the T/C by setting is: (dose: 50.0 mg/kg/injection, schedule: Q01DX001 (ip), vehicle: Klucel (hydroxypropylcellulose) (HPC)) 101 % of control; under setting [1], 99 % of control; under setting [2], 101 % of control.
For `CS(=O)(=O)O/C=C1/CCOC1=O`, the T/C (dose: 12.5 mg/kg/injection, schedule: Q01DX009 (ip), vehicle: water) was 105 % of control and the T/C (dose: 25.0 mg/kg/injection, schedule: Q01DX009 (ip), vehicle: water) was 106 % of control.
For `CN(C)N=Nc1ccccc1C(N)=O`, the T/C is, setting by setting: (dose: 20.0 mg/kg/injection, schedule: Q01DX009 (ip), vehicle: Klucel (hydroxypropylcellulose) (HPC)) 110 % of control; (dose: 30.0 mg/kg/injection, schedule: Q01DX009 (ip), vehicle: Klucel (hydroxypropylcellulose) (HPC)) 110 % of control; (dose: 31.25 mg/kg/injection, schedule: Q01DX009 (ip), vehicle: saline with Tween-80) 108 % of control; (dose: 37.25 mg/kg/injection, schedule: Q01DX009 (ip), vehicle: saline with Tween-80) 112 % of control; (dose: 37.5 mg/kg/injection, schedule: Q04DX003 (ip), vehicle: saline with Tween-80) 108 % of control; (dose: 45.0 mg/kg/injection, schedule: Q01DX009 (ip), vehicle: Klucel (hydroxypropylcellulose) (HPC)) 119 % of control. In addition, the T/C was 104 % of control (dose: 55.25 mg/kg/injection, schedule: Q04DX003 (ip), vehicle: saline with Tween-80); 111 % of control (dose: 62.5 mg/kg/injection, schedule: Q01DX001 (ip), vehicle: saline with Tween-80); 120 % of control (dose: 67.0 mg/kg/injection, schedule: Q01DX009 (ip), vehicle: other); 102 % of control (dose: 67.0 mg/kg/injection, schedule: Q01DX009 (ip), vehicle: saline with Tween-80); 119 % of control (dose: 74.5 mg/kg/injection, schedule: Q01DX009 (ip), vehicle: saline with Tween-80); 107 % of control (dose: 75.0 mg/kg/injection, schedule: Q01DX001 (ip), vehicle: other). The T/C by setting is: (dose: 75.0 mg/kg/injection, schedule: Q04DX003 (ip), vehicle: saline with Tween-80) 116 % of control; under setting [3], 109 % of control; (dose: 110.5 mg/kg/injection, schedule: Q04DX003 (ip), vehicle: saline with Tween-80) 122 % of control; (dose: 125.0 mg/kg/injection, schedule: Q01DX001 (ip), vehicle: saline with Tween-80) 110 % of control; (dose: 125.0 mg/kg/injection, schedule: Q01DX009 (ip), vehicle: saline with Tween-80) 86 % of control; (dose: 149.0 mg/kg/injection, schedule: Q01DX009 (ip), vehicle: saline with Tween-80) 156 % of control. Moreover, the T/C by setting is: (dose: 150.0 mg/kg/injection, schedule: Q01DX001 (ip), vehicle: other) 107 % of control; (dose: 150.0 mg/kg/injection, schedule: Q01DX001 (ip), vehicle: saline with Tween-80) 109 % of control; (dose: 150.0 mg/kg/injection, schedule: Q01DX009 (ip), vehicle: other) 150 % of control; (dose: 150.0 mg/kg/injection, schedule: Q01DX009 (ip), vehicle: saline with Tween-80) 117 % of control; (dose: 150.0 mg/kg/injection, schedule: Q04DX003 (ip), vehicle: saline with Tween-80) 120 % of control; (dose: 221.0 mg/kg/injection, schedule: Q04DX003 (ip), vehicle: saline with Tween-80) 150 % of control. Also, the T/C is 123 % of control (dose: 300.0 mg/kg/injection, schedule: Q01DX001 (ip), vehicle: other) and 106 % of control (dose: 300.0 mg/kg/injection, schedule: Q04DX003 (ip), vehicle: saline with Tween-80).
On to `COc1ccc(OC)c(C2=CCCCCC2)c1OC`, for which the T/C was 95 % of control under setting [3], 106 % of control under setting [4] and 100 % of control under setting [5].
Turning to `COc1ccc(OC)c(C(Nc2ccc3cn[nH]c3c2)P(=O)(c2ccccc2)c2ccccc2)c1` (stereo not given), the T/C is 93 % of control (dose: 100.0 mg/kg/injection, schedule: Q01DX001 (ip), vehicle: saline with Tween-80); 95 % of control under setting [3]; 103 % of control and 104 % of control (dose: 100.0 mg/kg/injection, schedule: Q04DX002 (ip), vehicle: saline with Tween-80); 96 % of control (dose: 100.0 mg/kg/injection, schedule: Q04DX003 (ip), vehicle: saline with Tween-80); 103 % of control (dose: 200.0 mg/kg/injection, schedule: Q01DX001 (ip), vehicle: saline with Tween-80); 95 % of control under setting [4]. Also, the T/C was 95 % of control and 90 % of control (dose: 200.0 mg/kg/injection, schedule: Q04DX002 (ip), vehicle: saline with Tween-80); 95 % of control (dose: 200.0 mg/kg/injection, schedule: Q04DX003 (ip), vehicle: saline with Tween-80); 92 % of control (dose: 400.0 mg/kg/injection, schedule: Q01DX001 (ip), vehicle: saline with Tween-80); 97 % of control under setting [5]; 93 % of control (dose: 400.0 mg/kg/injection, schedule: Q04DX002 (ip), vehicle: saline with Tween-80); 92 % of control (dose: 400.0 mg/kg/injection, schedule: Q04DX003 (ip), vehicle: saline with Tween-80).
Regarding `COC1NC(=O)NC(=O)C1=[N+]=[N-]` (stereo not given), the T/C is 115 % of control (dose: 5.0 mg/kg/injection, schedule: Q04DX003 (ip), vehicle: saline with Tween-80); 150 % of control (dose: 6.6 mg/kg/injection, schedule: Q01DX009 (ip), vehicle: saline with Tween-80); 170 % of control (dose: 10.0 mg/kg/injection, schedule: Q01DX009 (ip), vehicle: saline with Tween-80); 118 % of control (dose: 10.0 mg/kg/injection, schedule: Q04DX003 (ip), vehicle: saline with Tween-80); 163 % of control (dose: 15.0 mg/kg/injection, schedule: Q01DX009 (ip), vehicle: saline with Tween-80).
For `OB1OB(OB2OB(O)O2)O1`, the T/C is, setting by setting: (dose: 50.0 mg/kg/injection, schedule: Q01DX001 (ip), vehicle: saline) 92 % of control; (dose: 100.0 mg/kg/injection, schedule: Q01DX001 (ip), vehicle: saline) 92 % of control; (dose: 200.0 mg/kg/injection, schedule: Q01DX001 (ip), vehicle: saline) 108 % of control; (dose: 400.0 mg/kg/injection, schedule: Q01DX001 (ip), vehicle: saline) 113 % of control.
For the molecule `O=S1(=O)CCCCN1`, the T/C runs as follows: (dose: 44.0 mg/kg/injection, schedule: Q01DX009 (ip), vehicle: saline) 101 % of control; (dose: 87.5 mg/kg/injection, schedule: Q01DX009 (ip), vehicle: saline) 102 % of control; (dose: 175.0 mg/kg/injection, schedule: Q01DX009 (ip), vehicle: saline) 98 % of control; (dose: 350.0 mg/kg/injection, schedule: Q01DX009 (ip), vehicle: saline) 90 % of control.
For `CC(C)=NNC(=O)CC#N`, the T/C under setting [1] was 86 % of control and the T/C under setting [2] is 94 % of control.
`CN(C)c1ccc(CN2CCCN(Cc3ccc(N(C)C)cc3)C2c2ccc(N(CCCl)CCCl)cc2)cc1`: the T/C runs as follows: (dose: 100.0 mg/kg/injection, schedule: Q04DX003 (ip), vehicle: Klucel (hydroxypropylcellulose) (HPC)) 102 % of control; (dose: 200.0 mg/kg/injection, schedule: Q04DX003 (ip), vehicle: Klucel (hydroxypropylcellulose) (HPC)) 104 % of control; (dose: 400.0 mg/kg/injection, schedule: Q04DX003 (ip), vehicle: Klucel (hydroxypropylcellulose) (HPC)) 100 % of control.
With `O=C(N=Nc1c(NNC(=O)c2ccc([N+](=O)[O-])cc2)c(O)c2ccccc2c1O)c1ccc([N+](=O)[O-])cc1`, the T/C (dose: 75.0 mg/kg/injection, schedule: Q04DX003 (ip), vehicle: saline) was 102 % of control; the T/C (dose: 150.0 mg/kg/injection, schedule: Q04DX003 (ip), vehicle: saline) was 89 % of control; the T/C (dose: 300.0 mg/kg/injection, schedule: Q04DX003 (ip), vehicle: saline) is 94 % of control.
Take `CSCCC(NCc1cc(=O)[nH]c(=O)[nH]1)C(=O)O` (stereo not given): the T/C is 97 % of control (dose: 100.0 mg/kg/injection, schedule: Q04DX003 (ip), vehicle: saline); 101 % of control (dose: 200.0 mg/kg/injection, schedule: Q04DX003 (ip), vehicle: saline); 95 % of control (dose: 400.0 mg/kg/injection, schedule: Q04DX003 (ip), vehicle: saline).
